Tested on: T1, L-glutaminase
T1 construct: native extracellular enzyme purified from culture (ammonium sulfate, DEAE-cellulose, Sephacryl S-300); 52 kDa by SDS-PAGE (54 kDa in discussion); monomer
Experiment: steady-state kinetics, ammonia release by Nesslerization
Assay type: biochemical, Streptomyces sp. 5 M
Details: substrate 2-5 mM; pH and temperature of the kinetic run not printed (optimum pH 7.5, 40 °C)
Source text: steady-state kinetics, ammonia release by Nesslerization on L-glutaminase | the purified L-glutaminase from Streptomyces sp.

NC(=O)CC[C@H](N)C(=O)O [L-glutamine]
Km: 2620 µM

Reference: article PMC11699688, “Unravelling the outcome of L-glutaminase produced by Streptomyces sp. strain 5 M as an anti-neoplasm activity” (Microbial Cell Factories, 2025)
